The values below come from publication PMC10740580, “Benzothiazole-Phthalimide Hybrids as Anti-Breast Cancer and Antimicrobial Agents” (Antibiotics, 2023).

The structures appear in SMILES notation. In brackets after ≈: the same amount, converted by molar mass.

Experiment [1] deals with Candida parapsilosis 22019. Put plainly: Antifungal microdilution, C. parapsilosis ATCC 22019. It counts as cell-based. The conditions noted are these: microdilution CLSI M27-A3, 48 h, 37 °C, read-out: MIC C.p. 22019. The protocol:
(§1) In accordance with CLSI guidelines, compounds 3a–h were tested against a variety of fungal strains (Candida albicans 10231, Candida albicans 90028, Candida glabrata 15126, and Candida parapsilosis 22019) belonging to the ATCC collection. Amphotericin B was utilized as a reference drug. A similar trend of results, or even better than that obtained against bacteria, was assessed against fungal strains. […] Also, in this case, compound 3h emerged as the best of the series, with MICs of 16 μg/mL against Candida glabrata and Candida parapsilosis strains and 32 μg/mL against Candida albicans strains.
(§2) A microdilution technique described by the Clinical and Laboratory Standards Institute (CLSI, M27-A3) was used to assess the antifungal activity. The following fungal strains, belonging to the ATCC collection and available as freeze-dried discs, were used: C. albicans ATCC 10231, C. albicans ATCC 90028, C. glabrata ATCC 15126, and C. parapsilosis ATCC 22019. Stock solutions were prepared and preserved with purity as previously described for the antibacterial studies. Each yeast strain’s pre-cultures were made in Sabouraud broth (SAB) and allowed to grow until they stopped at 37 °C. By using a spectrophotometric technique (530 nm, range 0.12–0.15), the turbidity of the yeast stock suspension was calibrated to 0.5 McFarland Standard. Next, the standardized suspension was diluted first at 1:50 with SAB and then at 1:20 in the same medium to have […]. A total of 100 µL of inoculum was seeded into each well. As a control for growth, several wells containing only inoculated broth were prepared. The plates were incubated for 48 h at 37 °C, and the MIC values were calculated as the final well with no fungal growth. […] MIC values were observed based on the absence of fungal growth in the final well. The MICs were calculated by conducting the antifungal test three times in duplicate. As a control, amphotericin B was used.

The subject of the next experiment is gram-negative bacteria. Put plainly: Broth microdilution, gram-negative bacteria. The experiment is classed as cell-based. The conditions noted are these: read-out: MIC against gram-negative bacteria. The source says: (§3) Compounds 3a–h were examined in accordance with the Clinical Laboratory Standards Institute (CLSI) recommendations, by means of the broth microdilution method, against gram-positive bacteria (Staphylococcus aureus 25923, Staphylococcus aureus 29213, Staphylococcus aureus 43300, Enterococcus faecalis 29212) and gram-negative bacteria (Escherichia coli 25922, Klebsiella pneumoniae 13883, Pseudomonas aeruginosa 27853) belonging to the ATCC collection, using levofloxacin as a reference drug. Table 3 lists the results, expressed as MIC (µg/mL). […] The lack of activity observed for compound 3d could be conceivably due to its poor solubility in the culture medium containing the inoculum.
Following the recommendations of the CLSI (Clinical and Laboratory Standards Institute, 2012), the broth microdilution method was used to determine the in vitro minimum inhibitory concentrations (MICs, µg/mL).. The concentration of the investigated compounds was set to its highest value to create stock solutions. Then, the stock solutions were diluted 1:10 with Cation-Adjusted Mueller Hinton Broth (Oxoid, Milan, Italy). After that, a series of concentrations from 512 µg/mL to […] were obtained in the wells by performing two-fold serial dilutions in the appropriate test medium. The diluent used to create the stock solution was 100% DMSO. We used the following bacterial strains from the ATCC collection that were available as freeze-dried discs: gram-positive strains such as S. aureus ATCC 25923, 29213, and 43300, and E. faecalis ATCC 29212, and gram-negative ones such as E. coli ATCC 25922, K. pneuomoniae ATCC 13883, and P. aeruginosa ATCC 27853. To preserve the purity of cultures and to allow their reproducibility, cryovials of all microbial strains were set up in the medium and stored at −80 °C. Mueller Hinton Broth (MHB) was used to prepare pre-cultures of each bacterial strain, which were then incubated for 3–5 h at 37 °C. […]
In general terms: Dilution methods test growth across graded concentrations, often in twofold steps.

The subject of another experiment is gram-positive bacteria. Nature of the experiment: Broth microdilution, gram-positive bacteria. It counts as cell-based. Conditions: read-out: MIC against gram-positive bacteria.
Description: as §3
Following the recommendations of the CLSI (Clinical and Laboratory Standards Institute, 2012), the broth microdilution method was used to determine the in vitro minimum inhibitory concentrations (MICs, µg/mL).. The concentration of the investigated compounds was set to its highest value to create stock solutions. Then, the stock solutions were diluted 1:10 with Cation-Adjusted Mueller Hinton Broth (Oxoid, Milan, Italy). After that, a series of concentrations from 512 µg/mL to […] were obtained in the wells by performing two-fold serial dilutions in the appropriate test medium. The diluent used to create the stock solution was 100% DMSO. […]

The test system of another experiment is Candida albicans 90028. Put plainly: Antifungal microdilution, C. albicans ATCC 90028. The experiment is classed as cell-based. Conditions: microdilution CLSI M27-A3, 48 h, 37 °C. The protocol:
as §1, §2

The test system of experiment [2] is Enterococcus faecalis 29212. Put plainly: Broth microdilution, E. faecalis ATCC 29212. The experiment is classed as cell-based. The conditions noted are these: 24 h, 37 °C, read-out: MIC E.f. 29212.
Description: as §3
(§4) Following the recommendations of the CLSI (Clinical and Laboratory Standards Institute, 2012), the broth microdilution method was used to determine the in vitro minimum inhibitory concentrations (MICs, µg/mL).. The concentration of the investigated compounds was set to its highest value to create stock solutions. Then, the stock solutions were diluted 1:10 with Cation-Adjusted Mueller Hinton Broth (Oxoid, Milan, Italy). After that, a series of concentrations from 512 µg/mL to […] were obtained in the wells by performing two-fold serial dilutions in the appropriate test medium. The diluent used to create the stock solution was 100% DMSO. We used the following bacterial strains from the ATCC collection that were available as freeze-dried discs: gram-positive strains such as S. aureus ATCC 25923, 29213, and 43300, and E. faecalis ATCC 29212, and gram-negative ones such as E. coli ATCC 25922, K. pneuomoniae ATCC 13883, and P. aeruginosa ATCC 27853. To preserve the purity of cultures and to allow their reproducibility, cryovials of all microbial strains were set up in the medium and stored at −80 °C. Mueller Hinton Broth (MHB) was used to prepare pre-cultures of each bacterial strain, which were then incubated for 3–5 h at 37 °C. In accordance with CLSI procedure M7-A9, the turbidity of the bacterial cell suspension was calibrated to 0.5 McFarland Standard using a spectrophotometric approach (OD625 nm 0.08–0.10). The standardized suspension was then further diluted (1:100) with MHB to reach 1–2 × 10^6 CFU/mL. A 200 µL aliquot of the final inoculum was inserted into each well. As a control for growth, several wells containing only inoculated broth were prepared. The plates were incubated at 37 °C for 24 h, and the MIC values were calculated as the lowest concentration of compounds at which there was no optically detectable bacteria growth. Each experiment was carried out in duplicate and repeated twice to determine the MICs. Levofloxacin served as the study’s standard reference antibiotic. Additionally, the antibacterial activity of DMSO alone (used as a diluent for the investigated compounds) was examined; therefore, volumes of this solvent with a concentration of less than 5% were utilized throughout the experimentation.

Another experiment has as its system Candida glabrata 15126. Nature of the experiment: Antifungal microdilution, C. glabrata ATCC 15126. The experiment is classed as cell-based. Conditions: Nakaseomyces glabratus, microdilution CLSI M27-A3, 48 h, 37 °C, read-out: MIC C.g. 15126. The protocol: as §1, §2
Another experiment concerns Candida albicans 10231. Nature of the experiment: Antifungal microdilution, C. albicans ATCC 10231. The experiment is classed as cell-based. Conditions: microdilution CLSI M27-A3, 48 h, 37 °C. The protocol:
as §1, §2

The test system of experiment [3] is Staphylococcus aureus 29213. Put plainly: Broth microdilution, S. aureus ATCC 29213. The experiment is classed as cell-based. The conditions noted are these: 24 h, 37 °C.
Description: as §3, §4

The next experiment deals with angiogenesis. The conditions noted are these: previous study, reduced side effects compared to thalidomide; cited from earlier work.

As a reminder, the MIC is the lowest concentration that inhibits growth of the organism. For `COc1cc2nc(N3C(=O)c4ccccc4C3=O)sc2cc1OC` [3f, 2-[5,6-Dimethoxy-1,3-benzothiazol-2-yl]-1H-isoindole-1,3(2H)-dione], the MIC in [1] is 32 µg/mL (≈ 94 µM); with gram-negative bacteria it was 64 µg/mL (≈ 188 µM); in the experiment on gram-positive bacteria, 32 to 64 µg/mL (≈ 94 to 188 µM); in the experiment on Candida albicans 90028, 64 µg/mL (≈ 188 µM); in experiment [2] it was 32 µg/mL (≈ 94 µM); in the experiment with Candida glabrata 15126, 32 µg/mL (≈ 94 µM). Besides, the results for the MIC (against Candida albicans 10231; in experiment [3]) were 32 µg/mL (≈ 94 µM) and 64 µg/mL (≈ 188 µM), respectively.
`O=C1c2ccccc2C(=O)N1c1nc2ccccc2s1` [3a, 2-(1,3-benzothiazol-2-yl)-1H-isoindole-1,3(2H)-dione]: the MIC in experiment [1] was determined as 32 µg/mL (≈ 114 µM); in the experiment with Candida albicans 90028, 64 µg/mL (≈ 228 µM); in experiment [2], 64 µg/mL (≈ 228 µM); in the experiment with Candida glabrata 15126, 32 µg/mL (≈ 114 µM); with Candida albicans 10231 it was 64 µg/mL (≈ 228 µM); in [3], 64 µg/mL (≈ 228 µM). In addition, the antiangiogenic activity entry in the experiment with angiogenesis is recorded as “performed as antiangiogenic agents”.
With `O=C1c2ccccc2C(=O)N1c1nc2ccc(F)cc2s1` [3b, 2-(6-Fluoro-1,3-benzothiazol-2-yl)-1H-isoindole-1,3(2H)-dione], the MIC worked out at 32 µg/mL (≈ 107 µM) in experiment [1]; 64 µg/mL (≈ 215 µM) with Candida albicans 90028; 64 µg/mL (≈ 215 µM) in experiment [2]; 32 µg/mL (≈ 107 µM) with Candida glabrata 15126; 64 µg/mL (≈ 215 µM) in the experiment on Candida albicans 10231; 64 µg/mL (≈ 215 µM) in [3].
Consider `Cc1ccc2nc(N3C(=O)c4ccccc4C3=O)sc2c1` [3d, 2-[6-Methyl-1,3-benzothiazol-2-yl]-1H-isoindole-1,3(2H)-dione], for which the MIC (in experiment [1]; in the experiment with Candida albicans 90028; in experiment [2]; in the experiment with Candida glabrata 15126; in the experiment with Candida albicans 10231; in experiment [3]) was > 512 µg/mL each time. In addition, the antiangiogenic activity entry in the experiment with angiogenesis is listed as “performed as antiangiogenic agents”.
For `O=C1c2ccccc2C(=O)N1c1nc2ccc(Oc3ccccc3)cc2s1` [3h, 2-[6-Phenoxy-1,3-benzothiazol-2-yl]-1H-isoindole-1,3(2H)-dione], the MIC in experiment [1] amounted to 16 µg/mL (≈ 43 µM); with gram-negative bacteria it was 32 µg/mL (≈ 85.9 µM); against Candida albicans 90028, 32 µg/mL (≈ 85.9 µM); in [2], 32 µg/mL (≈ 85.9 µM); in the experiment with Candida glabrata 15126, 16 µg/mL (≈ 43 µM); in the experiment on Candida albicans 10231, 32 µg/mL (≈ 85.9 µM). Also, the MIC in experiment [3] was 32 µg/mL (≈ 85.9 µM).
With `O=C1c2ccccc2C(=O)N1c1nc2ccc(C(F)(F)F)cc2s1` [3c, 2-[6-Trifluoromethyl-1,3-benzothiazol-2-yl]-1H-isoindole-1,3(2H)-dione], the MIC in experiment [1] stood at 64 µg/mL (≈ 184 µM); against Candida albicans 90028, 64 µg/mL (≈ 184 µM); in [2], 64 µg/mL (≈ 184 µM); in the experiment with Candida glabrata 15126, 64 µg/mL (≈ 184 µM); in the experiment on Candida albicans 10231, 64 µg/mL (≈ 184 µM); in experiment [3] it was 128 µg/mL (≈ 367 µM).
As for `O=C1c2ccccc2C(=O)N1c1nc2ccc(O)cc2s1` [3g, 2-[6-Hydroxy-1,3-benzothiazol-2-yl]-1H-isoindole-1,3(2H)-dione], the MIC is 32 µg/mL (≈ 108 µM) in [1]; 64 µg/mL (≈ 216 µM) with gram-negative bacteria; 32 to 64 µg/mL (≈ 108 to 216 µM) in the experiment with gram-positive bacteria; 64 µg/mL (≈ 216 µM) in the experiment with Candida albicans 90028; 32 µg/mL (≈ 108 µM) in [2]; 32 µg/mL (≈ 108 µM) in the experiment with Candida glabrata 15126. The results for the MIC (against Candida albicans 10231; in experiment [3]) were 32 µg/mL (≈ 108 µM) and 64 µg/mL (≈ 216 µM), respectively.
Regarding `COc1ccc2nc(N3C(=O)c4ccccc4C3=O)sc2c1` [3e, 2-[6-Methoxy-1,3-benzothiazol-2-yl]-1H-isoindole-1,3(2H)-dione], the MIC in [1] came to 32 µg/mL (≈ 103 µM); against Candida albicans 90028, 64 µg/mL (≈ 206 µM); in experiment [2] it was 64 µg/mL (≈ 206 µM); in the experiment with Candida glabrata 15126 it was 64 µg/mL (≈ 206 µM); in the experiment with Candida albicans 10231, 64 µg/mL (≈ 206 µM); in experiment [3], 64 µg/mL (≈ 206 µM).
